Results taken from patent US4137227A, “1-Alkyl-1,4-dihydro-4-oxo-7-triazenyl-3-quinolinecarboxylic acids” (Sterling Drug Inc., priority 1977, dated 1979).
≈ marks a conversion by molar mass, not a printed value. Where two headings read alike, the source gives them in different places.

How the values were obtained:
[1] = test system: Kleb. pneumoniae; assay: Autotiter in vitro antibacterial test, Kleb. pneumoniae; assay type: cell-based; conditions: Klebsiella pneumoniae, 18-20 hours at 37° C., read-out: minimal inhibitory concentration (MIC)
Procedure: (§1) The antibacterial activity of the compounds of formula I was determined using a modification of the Autotiter® method described by Goss et al. [Applied Microbiology 16 (9), 1414-1416 (1968)] in which a 1,000 mcg./ml. solution of the test compound is prepared. To the first cup of the Autotray® is added 0.1 ml. of the test solution. Activation of the Autotiter initiates a sequence of operations by which 0.05 ml. of the test compound solution is withdrawn from the cup by a Microtiter® transfer loop and diluted in 0.05 ml. of sterile water. Following this operation, 0.05 ml. of inoculated double-strength semisynthetic medium (glucose) is added automatically to each cup. The overall operation results in final drug concentrations ranging from 500 to 0.06 mcg./ml. in twofold decrements. The Autotray is incubated for 18-20 hours at 37° C. at which time the trays are examined visually for growth as evidenced by turbidity, and the concentration of the last sample in the series showing no growth (or no turbidity) is recorded as the minimal inhibitory concentration (MIC) in mcg./ml. The compounds were thus tested as solutions and found active in the range of 7.8 to 125 mcg./ml. (MIC) against one or more of various gram positive and gram negative bacteria including Staphylococcus aureus, Proteus mirabilis, Escherichia coli, Klebsiella pneumoniae and Streptococcus pyogenes.

[2] = test system: E. coli (Vogel); assay: Autotiter in vitro antibacterial test, E. coli (Vogel); assay type: cell-based; conditions: Escherichia coli, 18-20 hours at 37° C., read-out: minimal inhibitory concentration (MIC)
Procedure: as §1

[3] = test system: S. aureus (Smith); assay: Autotiter in vitro antibacterial test, S. aureus (Smith); assay type: cell-based; conditions: Staphylococcus aureus, 18-20 hours at 37° C., read-out: minimal inhibitory concentration (MIC)
Procedure: as §1

[4] = test system: Prot. mirabilis; assay: Autotiter in vitro antibacterial test, Prot. mirabilis; assay type: cell-based; conditions: Proteus mirabilis, 18-20 hours at 37° C., read-out: minimal inhibitory concentration (MIC)
Procedure: as §1

[5] = test system: Strep. pyogens; assay: Autotiter in vitro antibacterial test, Strep. pyogens; assay type: cell-based; conditions: Streptococcus pyogenes, 18-20 hours at 37° C., read-out: minimal inhibitory concentration (MIC)
Procedure: as §1

[6] = test system: E. coli (1100/B22); assay: Autotiter in vitro antibacterial test, E. coli (1100/B22); assay type: cell-based; conditions: Escherichia coli, 18-20 hours at 37° C., read-out: minimal inhibitory concentration (MIC)
Procedure: as §1

[7] = test system: L-1210 leukemia; conditions: 30 to 40 mg/kg dosage; cited from earlier work
[8] = test system: P-388 tumor; conditions: cited from earlier work; for life-span of mice bearing i.p. implanted P-388 tumor: control animals 10 days
[9] = cited from earlier work

Compound	MIC [1] [µg/mL]	MIC [2] [µg/mL]	MIC [3] [µg/mL]	MIC [4] [µg/mL]	MIC [5] [µg/mL]	activity against P-388 tumor (in words) ([8]; up to 40 mg/kg)	further results
CCn1cc(C(=O)O)c(=O)c2ccc(N=NN3CCN(C)CC3)cc21 [Example E-5, 1-Ethyl-1,4-dihydro-7-[(4-methyl-1-piperazinyl)azo]-4-oxo-3-quinolinecarboxylic Acid]	62.5 (≈ 182 µM)	15.6 (≈ 45.4 µM)	31.3 (≈ 91.2 µM)	125 (≈ 364 µM)	125 (≈ 364 µM)	–	–
CCCn1cc(C(=O)O)c(=O)c2ccc(N=NN(CC)CC)cc21 [Example E-4, 7-(3,3Diethyl-1-triazenyl)-1,4-dihydro-4-oxo-1-n-propyl-3-quinolinecarboxylic Acid]	> 500	> 500	62.5 (≈ 189 µM)	> 500	62.5 (≈ 189 µM)	–	MIC [6]: > 500 µg/mL
CN(C)N=Nc1ccc2c(=O)c(C(=O)O)cn(C)c2c1 [Example E-2, 1,4-Dihydro-1-methyl-7-(3,3-dimethyl-1-triazenyl)-4-oxo-3-quinolinecarboxylic Acid]	> 125	125 (≈ 456 µM)	62.5 (≈ 228 µM)	> 125	62.5 (≈ 228 µM)	–	MIC [6]: > 250 µg/mL
CCCn1cc(C(=O)O)c(=O)c2ccc(N=NN(C)C)cc21 [Example E-3, 1,4-Dihydro-7-(3,3-dimethyl-1-triazenyl)-4-oxo-1-n-propyl-3-quinolinecarboxylic Acid]	> 125	> 62.5	> 62.5	> 125	31.3 (≈ 104 µM)	–	MIC [6]: > 62.5 µg/mL
CN(C)N=Nc1ccnc2c(Br)cccc12 [Example 8-bromo]	–	–	–	–	–	inactive	activity against mouse L-1210 leukemia (in words) [7]: active; increase of life-span, mouse L-1210 leukemia [7]: 65%
CN(C)N=Nc1ccnc2cc(Br)ccc12 [Example 7-bromo]	–	–	–	–	–	inactive	–
CN(C)N=Nc1ccnc2ccc(I)cc12 [Example 6-iodo]	–	–	–	–	–	inactive	–
CN(C)N=Nc1cnc2ccccc2c1 [3,3-dimethyl-1-(3'-quinolinyl)triazene]	–	–	–	–	–	–	stability of crude product on drying ([9]; allowed to dry while crude): decomposes in a puff of smoke; stability of crude product ([9]; crude product): Crude product is very unstable; stability during microanalysis ([9]; during microanalysis): Explodes during microanalysis; stability of purified material on storage ([9]; purified material, on storage): darkens rapidly, but less dramatically, on storage
CCn1cc(C(=O)O)c(=O)c2ccc(N=NN(C)C)cc21 [Example E-1, 1-Ethyl-1,4-dihydro-7-(3,3-dimethyl-1-triazenyl)-4-oxo-3-quinolinecarboxylic Acid]	500 (≈ 1730 µM)	7.8 (≈ 27.1 µM)	15.6 (≈ 54.1 µM)	–	125 (≈ 434 µM)	–	–
CN(C)N=Nc1ccnc2ccc(Cl)cc12 [Example 6-chloro, 6-chloro-4-(3,3-dimethyl-1-triazeno)quinoline]	–	–	–	–	–	–	activity against P-388 tumor (in words) ([8]; i.p. dosage of 30 mg/kg): active; life-span of mice bearing i.p. implanted P-388 tumor ([8]; i.p. dosage of 30 mg/kg): 16 to 18 days
CN(C)N=Nc1ccnc2cc(Cl)ccc12 [Example 7-chloro, 7-chloro-4-(3,3-dimethyl-1-triazeno)quinoline]	–	–	–	–	–	–	activity against P-388 tumor (in words) ([8]; i.p. dosage of 30 mg/kg): active; life-span of mice bearing i.p. implanted P-388 tumor ([8]; i.p. dosage of 30 mg/kg): 16 to 18 days
CN(C)N=Nc1ccnc2c(Cl)cccc12 [Example 8-chloro, 8-chloro-4-(3,3-dimethyl-1-triazeno)quinoline]	–	–	–	–	–	–	activity against mouse L-1210 leukemia (in words) [7]: active; increase of life-span, mouse L-1210 leukemia [7]: 65%; activity against P-388 tumor (in words) ([8]; i.p. dosage of 30 mg/kg): active; life-span of mice bearing i.p. implanted P-388 tumor ([8]; i.p. dosage of 30 mg/kg): 16 to 18 days
CN(C)N=Nc1ccnc2ccc(Br)cc12 [Example 6-bromo]	–	–	–	–	–	inactive	activity against mouse L-1210 leukemia (in words) [7]: active; increase of life-span, mouse L-1210 leukemia [7]: 50%
